Data taken from US9012431B2, “Boron-containing small molecules as anti-inflammatory agents” (Anacor Pharmaceuticals, Inc., priority 2008, dated 2015).

Tests used:
[1] = system: BALB/c male mice; test: Oxazolone Induced Mouse Ear Edema Model; assay type: in vivo
Experimental: 2. In Vivo Anti-Inflammation Activity in Oxazolone Induced Mouse Ear Edema Model
Groups of 5 BALB/c male mice weighing 23±2 g were used. The preshaved abdomens of test animals were sensitized by application of 100 μl, of 1.5% oxazolone solution dissolved in acetone. Seven days after the initial sensitization, test substances, as well as vehicle (acetone:ethanol/1:1, 20 μL/ear) were each administered topically to the anterior and posterior surfaces of the right ear 30 minutes before, and 15 minutes after, challenge by a second application of oxazolone (1% in acetone, […]) via topical route. As a positive control, indomethacin (0.3 mg/ear×2) was administered topically using the same treatment regime as for the test compounds. Twenty-four hours after the second application of oxazolone, the ear thickness of each mouse was measured with a Dyer model micrometer gauge. A 30 percent or more inhibition in ear swelling relative to the vehicle control was considered significant and indicated possible anti-inflammatory activity.

[2] = system: IL-10; test: Cytokine assay, IL-10 release from PBMC; assay type: cell-based; conditions: human PBMC, 20 ug/mL PHA, supernatant at 48 hours
How it was run: (§1)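 Cytokine released into the medium was the read-out. Thawed human peripheral blood mononuclear cells in RPMI 1640/10% FBS received test article at 0.01–10 μM, in triplicate wells.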

[3] = system: TNF-α; test: Cytokine assay, TNF-α release from PBMC; assay type: cell-based; conditions: Homo sapiens, PBMC, 24 h, 1 μg/mL LPS, supernatant at 24 hours
How it was run: as §1

[4] = system: IL-2; test: Cytokine assay, IL-2 release from PBMC; assay type: cell-based; conditions: human PBMC, 20 ug/mL PHA, supernatant at 24 hours
How it was run: as §1

[5] = system: T1, PDE4 partially purified from human U-937 myeloid leukemia cells; test: PDE4 Assay (enzyme from U-937 cells, [3H]cAMP); assay type: biochemical; conditions: PDE4 from U-937 cells, Tris buffer pH 7.5, 20 minutes at 25° C.
T1 construct: PDE4 partially purified from human U-937 myeloid leukemia cells was used

[6] = system: IFN-γ; test: Cytokine assay, IFN-γ release from PBMC; assay type: cell-based; conditions: human PBMC, 20 ug/mL PHA, supernatant at 24 hours
How it was run: as §1

[7] = system: IL-5; test: Cytokine assay, IL-5 release from PBMC; assay type: cell-based; conditions: human PBMC, 20 ug/mL PHA, supernatant at 48 hours
How it was run: as §1

[8] = system: CD-1 (Crl.) derived male mice; test: Phorbol Ester Induced Mouse Ear Edema Model; assay type: in vivo; conditions: topical, 6 h; for inhibition in vivo at 3 mg: 3 mg/ear × 2 topical
Experimental: 1. In Vivo Anti-Inflammation Activity in Phorbol Ester Induced Mouse Ear Edema Model
[…] Dexamethasone (1 mg/ear×2) used as the positive control was administered topically to test animals using the same application schedule. Ear swelling was then measured by a Dyer model micrometer gauge at 6 hours after PMA application as an index of inflammation. Percent inhibition was calculated according to the formula: [(Ic−It)/Ic]×100%, where Ic and It refer to increase of ear thickness (mm) in control and treated mice, respectively.

[9] = 1 mg/ear topical, Acetone:Ethanol/1:1, ear swelling 6 hours after PMA
[10] = 1 mg/ear × 2 topical, Acetone:Ethanol/1:1, ear swelling 6 hours after PMA

Q: Which results are given for `N#Cc1ccc(Oc2ccc3c(c2)COB3O)c(Cl)c1` [D4, 5-(2-Chloro-4-cyanophenoxy)-1,3-dihydro-1-hydroxy-2,1-benzoxaborole]?
A: inhibition in vivo at 0.02 mg ([1]; 0.02 mg/ear × 2 topical, Acetone:Ethanol/1:1, ear thickness 24 hours after second oxazolone application): < 20%; inhibition in vivo at 1 mg ([1]; 1 mg/ear × 2 topical, Acetone:Ethanol/1:1, ear thickness 24 hours after second oxazolone application): 30 to 40%; IC50 [2]: > 10 µM; IC50 [3]: < 1 µM; IC50 [4]: < 1 µM; IC50 [5]: < 1 µM; IC50 [6]: < 1 µM; IC50 [7]: < 1 µM

Q: Which results are given for `CCOC(=O)c1ccc(Oc2ccc3c(c2)COB3O)nc1OCC` [D27, Ethyl 2-ethoxy-6-(1-hydroxy-1,3-dihydrobenzo[c][1,2]oxaborol-5-yloxy)nicotinate]?
A: inhibition in vivo at 3 mg ([1]; 3 mg/ear × 2 topical, 95% Ethanol, ear thickness 24 hours after second oxazolone application): 20 to 30%; IC50 [3]: < 1 µM; IC50 [4]: < 1 µM; IC50 [5]: < 1 µM; IC50 [6]: < 1 µM

Q: For `CN1CCN(Cc2cc(C#N)ccc2Oc2ccc3c(c2)COB3O)CC1` [D33, 1-(5-cyano-2-(1-hydroxy-1,3-dihydrobenzo[c][1,2]oxaborol-5-yloxy)benzyl)-4-methylpiperazine-1,4-diium], which inhibition in vivo at 1 mg [8, 9] is on record?
A: < 30%

Q: What about the IC50 [2] of the same compound?
A: < 1 µM

Q: And the IC50 [3]?
A: < 1 µM

Q: And the IC50 [4]?
A: < 1 µM

Q: And the IC50 [5]?
A: < 1 µM

Q: And the IC50 [6]?
A: < 1 µM

Q: And the IC50 [7]?
A: < 1 µM

Q: Which inhibition in vivo at 1 mg [8, 9] does the source give for `CN(C)Cc1cc(C#N)ccc1Oc1ccc2c(c1)COB2O` [D34, 1-(5-cyano-2-(1-hydroxy-1,3-dihydrobenzo[c][1,2]oxaborol-5-yloxy)phenyl)-N,N-dimethylmethanaminium] here?
A: < 30%

Q: What about the IC50 [2] of the same compound?
A: 1 to 4 µM

Q: And the IC50 [3]?
A: 1 to 4 µM

Q: What about the IC50 [4] of the same compound?
A: < 1 µM

Q: And the IC50 [5]?
A: 1 to 4 µM

Q: And the IC50 [6]?
A: < 1 µM

Q: And the IC50 [7]?
A: 1 to 4 µM

Q: Which results are given for `COC(=O)c1ccc(Oc2ccc3c(c2)COB3O)c(F)c1` [D50, 5-(2-Fluoro-4-methoxycarbonylphenoxy)-1-hydroxy-2,1-benzoxaborole]?
A: inhibition in vivo at 1 mg [8, 10]: 60 to 90%; IC50 [2]: 4 to 10 µM; IC50 [3]: < 1 µM; IC50 [4]: < 1 µM; IC50 [5]: < 1 µM; IC50 [6]: < 1 µM; IC50 [7]: 1 to 4 µM

Q: With `CCNC(=O)c1ccc(Oc2ccc3c(c2)COB3O)nc1` [D63, N-Ethyl-6-(1-hydroxy-1,3-dihydrobenzo[c][1,2]oxaborol-5-yloxy) nicotinamide] as the compound, how does the inhibition in vivo at 1 mg [8, 10] read?
A: < 30%

Q: And the IC50 [2]?
A: 1 to 4 µM

Q: What about the IC50 [3] of the same compound?
A: < 1 µM

Q: What about the IC50 [4] of the same compound?
A: < 1 µM

Q: And the IC50 [5]?
A: < 1 µM

Q: What about the IC50 [6] of the same compound?
A: 1 to 4 µM

Q: And the IC50 [7]?
A: 1 to 4 µM

Q: How did the inhibition in vivo at 1 mg [8, 10] turn out when `COC(=O)c1ccc(Oc2ccc3c(c2)COB3O)nc1` [D65, Methyl 6-(1-hydroxy-1,3-dihydrobenzo[c][1,2]oxaborol-5-yloxy)nicotinate] was run?
A: 30 to 60%

Q: What about the IC50 [2] of the same compound?
A: < 1 µM

Q: And the IC50 [3]?
A: < 1 µM

Q: What about the IC50 [4] of the same compound?
A: < 1 µM

Q: And the IC50 [5]?
A: < 1 µM

Q: And the IC50 [6]?
A: < 1 µM

Q: What about the IC50 [7] of the same compound?
A: < 1 µM

Q: Which inhibition in vivo at 1 mg ([8]; 1 mg/ear × 2 topical, vehicle not given, ear swelling 6 hours after PMA) does the source give for `CCCOC(=O)c1ccc(Oc2ccc3c(c2)COB3O)cc1` [D73, 4-(1-Hydroxy-1,3-dihydro-benzo[c][1,2]oxaborol-5-yloxy)-benzoic acid propyl ester] here?
A: 30 to 60%

Q: And the inhibition in vivo at 3 mg ([8]; vehicle not given, ear swelling 6 hours after PMA)?
A: 60 to 90%

Q: And the IC50 [2]?
A: > 10 µM

Q: What about the IC50 [3] of the same compound?
A: 1 to 4 µM

Q: What about the IC50 [4] of the same compound?
A: 1 to 4 µM

Q: And the IC50 [5]?
A: < 1 µM

Q: What about the IC50 [6] of the same compound?
A: 4 to 10 µM

Q: What about the IC50 [7] of the same compound?
A: 1 to 4 µM

Q: `COCCOc1nc(Oc2ccc3c(c2)COB3O)ccc1C#N` [D86] was tested. Which inhibition in vivo at 0.063 mg ([8]; 0.063 mg/ear × 2 topical, 95% Ethanol, ear swelling 6 hours after PMA) did it give?
A: < 30%

Q: What about the inhibition in vivo at 0.21 mg ([8]; 0.21 mg/ear × 2 topical, 95% Ethanol, ear swelling 6 hours after PMA) of the same compound?
A: < 30%

Q: And the inhibition in vivo at 0.63 mg ([8]; 0.63 mg/ear × 2 topical, 95% Ethanol, ear swelling 6 hours after PMA)?
A: < 30%

Q: And the inhibition in vivo at 3 mg ([8]; 95% Ethanol, ear swelling 6 hours after PMA)?
A: < 30%

Q: And the IC50 [2]?
A: < 1 µM

Q: And the IC50 [3]?
A: < 1 µM

Q: And the IC50 [4]?
A: < 1 µM

Q: And the IC50 [5]?
A: < 1 µM

Q: What about the IC50 [6] of the same compound?
A: < 1 µM

Q: And the IC50 [7]?
A: < 1 µM
